Our source for the EC50 values is patent US8748415B2 (priority 2011, dated 2014).

This assay has as its system recombinant NL4-3 virus (Renilla luciferase in nef, Gag P373S). The assay is described as follows: HIV cell culture assay (luciferase activity in MT-2 cells infected with NLRluc recombinant virus). The conditions noted are these: NL43, MT-2 cells infected 4-5 days with NLRluc recombinant virus. Format: cell-based. The method in brief:
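Activity was read as luciferase output (Dual Luciferase reagents premixed with lysis solution) after 4–5 days of infection in serially diluted inhibitor. Host cells were MT-2 in 10% FBS RPMI. The reporter virus came from transfected 293T cells and was titered on MT-2.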

Some results are limits rather than exact numbers.

In the case of `C=C(C)[C@@H]1CC[C@]2(CN(C)CCS(=O)(=O)N3CCN(C)CC3)CC[C@]3(C)[C@H](CC[C@@H]4[C@@]5(C)CC=C(c6ccc(C(=O)O)cc6)C(C)(C)[C@@H]5CC[C@]43C)[C@@H]12` [Example 44, 4-((1R,3aS,5aR,5bR,7aR,11aS,11bR,13aR,13bR)-5a,5b,8,8,11a-pentamethyl-3a-((methyl(2-(4-methylpiperazin-1-ylsulfonyl)ethyl)amino)methyl)-1-(prop-1-en-2-yl)-2,3,3a,4,5,5a,5b,6,7,7a,8,11,11a,11b,12,13,13a,13b-octadecahydro-1H-cyclopenta[a]chrysen-9-yl)benzoic acid], the EC50 (as a rule, the midpoint of the concentration-response curve) (numeric value) was found to be 20 nM.
Turning to `C=C(C)[C@@H]1CC[C@]2(CNCCS(N)(=O)=O)CC[C@]3(C)[C@H](CC[C@@H]4[C@@]5(C)CC=C(c6ccc(C(=O)O)cc6)C(C)(C)[C@@H]5CC[C@]43C)[C@@H]12` [Example 45], the 50% effective concentration (EC50) (class symbol) is under 100 nM.
Same read-out and setting: the value for `C=C(C)[C@@H]1CC[C@]2(CNCCc3ccc(C(=O)OC)cc3)CC[C@]3(C)[C@H](CC[C@@H]4[C@@]5(C)CC=C(c6ccc(C(=O)O)cc6)C(C)(C)[C@@H]5CC[C@]43C)[C@@H]12` [Example 46, 4-((1R,3aS,5aR,5bR,7aR,11aS,11bR,13aR,13bR)-3a-((4-(methoxycarbonyl)phenethylamino)methyl)-5a,5b,8,8,11a-pentamethyl-1-(prop-1-en-2-yl)-2,3,3a,4,5,5a,5b,6,7,7a,8,11,11a,11b,12,13,13a,13b-octadecahydro-1H-cyclopenta[a]chrysen-9-yl)benzoic acid] was under 100 nM.
As to `C=C(C)[C@@H]1CC[C@]2(CNCCc3ccc(C(=O)O)cc3)CC[C@]3(C)[C@H](CC[C@@H]4[C@@]5(C)CC=C(c6ccc(C(=O)O)cc6)C(C)(C)[C@@H]5CC[C@]43C)[C@@H]12` [Example 47, 4-((1R,3aS,5aR,5bR,7aR,11aS,11bR,13aR,13bR)-3a-((4-carboxyphenethylamino)methyl)-5a,5b,8,8,11a-pentamethyl-1-(prop-1-en-2-yl)-2,3,3a,4,5,5a,5b,6,7,7a,8,11,11a,11b,12,13,13a,13b-octadecahydro-1H-cyclopenta[a]chrysen-9-yl)benzoic acid], the EC50 (class symbol) is under 100 nM.
The same measure, in the same setting: the value for `C=C(C)[C@@H]1CC[C@]2(CNCCN3CCC(F)(F)CC3)CC[C@]3(C)[C@H](CC[C@@H]4[C@@]5(C)CC=C(c6ccc(C(=O)O)cc6)C(C)(C)[C@@H]5CC[C@]43C)[C@@H]12` [Example 48, 4-((1R,3aS,5aR,5bR,7aR,11aS,11bR,13aR,13bR)-3a-((2-(4,4-difluoropiperidin-1-yl)ethylamino)methyl)-5a,5b,8,8,11a-pentamethyl-1-(prop-1-en-2-yl)-2,3,3a,4,5,5a,5b,6,7,7a,8,11,11a,11b,12,13,13a,13b-octadecahydro-1H-cyclopenta[a]chrysen-9-yl)benzoic acid] was under 100 nM; that for `C=C(C)[C@@H]1CC[C@]2(CN[C@@H](CC(=O)OC)C(=O)OC)CC[C@]3(C)[C@H](CC[C@@H]4[C@@]5(C)CC=C(c6ccc(C(=O)O)cc6)C(C)(C)[C@@H]5CC[C@]43C)[C@@H]12` [Example 49, 4-((1R,3aS,5aR,5bR,7aR,11aS,11bR,13aR,13bR)-3a-(((S)-1,4-dimethoxy-1,4-dioxobutan-2-ylamino)methyl)-5a,5b,8,8,11a-pentamethyl-1-(prop-1-en-2-yl)-2,3,3a,4,5,5a,5b,6,7,7a,8,11,11a,11b,12,13,13a,13b-octadecahydro-1H-cyclopenta[a]chrysen-9-yl)benzoic acid] was under 100 nM.
On the same count and under the same terms, the result for `C=C(C)[C@@H]1CC[C@]2(CNC3(C(=O)O)CC3)CC[C@]3(C)[C@H](CC[C@@H]4[C@@]5(C)CC=C(c6ccc(C(=O)O)cc6)C(C)(C)[C@@H]5CC[C@]43C)[C@@H]12` [Example 50, 4-((1R,3aS,5aR,5bR,7aR,11aS,11bR,13aR,13bR)-3a-((1-carboxycyclopropylamino)methyl)-5a,5b,8,8,11a-pentamethyl-1-(prop-1-en-2-yl)-2,3,3a,4,5,5a,5b,6,7,7a,8,11,11a,11b,12,13,13a,13b-octadecahydro-1H-cyclopenta[a]chrysen-9-yl)benzoic acid] reads under 100 nM; that for `C=C(C)[C@@H]1CC[C@]2(CNC3(C(=O)OC)CC3)CC[C@]3(C)[C@H](CC[C@@H]4[C@@]5(C)CC=C(c6ccc(C(=O)O)cc6)C(C)(C)[C@@H]5CC[C@]43C)[C@@H]12` [Example 51, 4-((1R,3aS,5aR,5bR,7aR,11aS,11bR,13aR,13bR)-3a-((1-(methoxycarbonyl)cyclopropylamino)methyl)-5a,5b,8,8,11a-pentamethyl-1-(prop-1-en-2-yl)-2,3,3a,4,5,5a,5b,6,7,7a,8,11,11a,11b,12,13,13a,13b-octadecahydro-1H-cyclopenta[a]chrysen-9-yl)benzoic acid], under 100 nM; that for `C=C(C)[C@@H]1CC[C@]2(CNC3(CN(CC)CC)CC3)CC[C@]3(C)[C@H](CC[C@@H]4[C@@]5(C)CC=C(c6ccc(C(=O)O)cc6)C(C)(C)[C@@H]5CC[C@]43C)[C@@H]12` [Example 52, 4-((1R,3aS,5aR,5bR,7aR,11aS,11bR,13aR,13bR)-3a-((1-((diethylamino)methyl)cyclopropylamino)methyl)-5a,5b,8,8,11a-pentamethyl-1-(prop-1-en-2-yl)-2,3,3a,4,5,5a,5b,6,7,7a,8,11,11a,11b,12,13,13a,13b-octadecahydro-1H-cyclopenta[a]chrysen-9-yl)benzoic acid], under 100 nM.
The same measure, in the same setting: the value for `C=C(C)[C@@H]1CC[C@]2(CNCc3ccoc3)CC[C@]3(C)[C@H](CC[C@@H]4[C@@]5(C)CC=C(c6ccc(C(=O)O)cc6)C(C)(C)[C@@H]5CC[C@]43C)[C@@H]12` [Example 53, 4-((1R,3aS,5aR,5bR,7aR,11aS,11bR,13aR,13bR)-3a-((furan-3-ylmethylamino)methyl)-5a,5b,8,8,11a-pentamethyl-1-(prop-1-en-2-yl)-2,3,3a,4,5,5a,5b,6,7,7a,8,11,11a,11b,12,13,13a,13b-octadecahydro-1H-cyclopenta[a]chrysen-9-yl)benzoic acid] was under 100 nM.
In the case of `C=C(C)[C@@H]1CC[C@]2(CNCCCC(=O)N3CCS(=O)(=O)CC3)CC[C@]3(C)[C@H](CC[C@@H]4[C@@]5(C)CC=C(c6ccc(C(=O)O)cc6)C(C)(C)[C@@H]5CC[C@]43C)[C@@H]12` [Example 54, 4-((1R,3aS,5aR,5bR,7aR,11aS,11bR,13aR,13bR)-3a-(((4-(1,1-dioxido-4-thiomorpholinyl)-4-oxobutyl)amino)methyl)-1-isopropenyl-5a,5b,8,8,11a-pentamethyl-2,3,3a,4,5,5a,5b,6,7,7a,8,11,11a,11b,12,13,13a,13b-octadecahydro-1H-cyclopenta[a]chrysen-9-yl)benzoic acid], the EC50 (class symbol) is under 100 nM.
With `C=C(C)[C@@H]1CC[C@]2(CNCCCn3ccnc3)CC[C@]3(C)[C@H](CC[C@@H]4[C@@]5(C)CC=C(c6ccc(C(=O)O)cc6)C(C)(C)[C@@H]5CC[C@]43C)[C@@H]12` [Example 55, 4-((1R,3aS,5aR,5bR,7aR,11aS,11bR,13aR,13bR)-3a-((3-(1H-imidazol-1-yl)propylamino)methyl)-5a,5b,8,8,11a-pentamethyl-1-(prop-1-en-2-yl)-2,3,3a,4,5,5a,5b,6,7,7a,8,11,11a,11b,12,13,13a,13b-octadecahydro-1H-cyclopenta[a]chrysen-9-yl)benzoic acid], where the note is “class symbol”, the EC50 is under 100 nM.
Same read-out and setting: the value for `C=C(C)[C@@H]1CC[C@]2(CNCCCN3CCN(C)CC3)CC[C@]3(C)[C@H](CC[C@@H]4[C@@]5(C)CC=C(c6ccc(C(=O)O)cc6)C(C)(C)[C@@H]5CC[C@]43C)[C@@H]12` [Example 56, 4-((1R,3aS,5aR,5bR,7aR,11aS,11bR,13aR,13bR)-5a,5b,8,8,11a-pentamethyl-3a-((3-(4-methylpiperazin-1-yl)propylamino)methyl)-1-(prop-1-en-2-yl)-2,3,3a,4,5,5a,5b,6,7,7a,8,11,11a,11b,12,13,13a,13b-octadecahydro-1H-cyclopenta[a]chrysen-9-yl)benzoic acid] was under 100 nM; that for `C=C(C)[C@@H]1CC[C@]2(CNCCN(C(C)C)C(C)C)CC[C@]3(C)[C@H](CC[C@@H]4[C@@]5(C)CC=C(c6ccc(C(=O)O)cc6)C(C)(C)[C@@H]5CC[C@]43C)[C@@H]12` [Example 57, 4-((1R,3aS,5aR,5bR,7aR,11aS,11bR,13aR,13bR)-3a-((2-(diisopropylamino)ethylamino)methyl)-5a,5b,8,8,11a-pentamethyl-1-(prop-1-en-2-yl)-2,3,3a,4,5,5a,5b,6,7,7a,8,11,11a,11b,12,13,13a,13b-octadecahydro-1H-cyclopenta[a]chrysen-9-yl)benzoic acid] was under 100 nM; that for `C=C(C)[C@@H]1CC[C@]2(CNCCCN3CCCC3=O)CC[C@]3(C)[C@H](CC[C@@H]4[C@@]5(C)CC=C(c6ccc(C(=O)O)cc6)C(C)(C)[C@@H]5CC[C@]43C)[C@@H]12` [Example 58, 4-((1R,3aS,5aR,5bR,7aR,11aS,11bR,13aR,13bR)-5a,5b,8,8,11a-pentamethyl-3a-((3-(2-oxopyrrolidin-1-yl)propylamino)methyl)-1-(prop-1-en-2-yl)-2,3,3a,4,5,5a,5b,6,7,7a,8,11,11a,11b,12,13,13a,13b-octadecahydro-1H-cyclopenta[a]chrysen-9-yl)benzoic acid] was under 100 nM.
Consider `C=C(C)[C@@H]1CC[C@]2(CNCCn3ccnc3C)CC[C@]3(C)[C@H](CC[C@@H]4[C@@]5(C)CC=C(c6ccc(C(=O)O)cc6)C(C)(C)[C@@H]5CC[C@]43C)[C@@H]12` [Example 59, 4-((1R,3aS,5aR,5bR,7aR,11aS,11bR,13aR,13bR)-5a,5b,8,8,11a-pentamethyl-3a-((2-(2-methyl-1H-imidazol-1-yl)ethylamino)methyl)-1-(prop-1-en-2-yl)-2,3,3a,4,5,5a,5b,6,7,7a,8,11,11a,11b,12,13,13a,13b-octadecahydro-1H-cyclopenta[a]chrysen-9-yl)benzoic acid], for which the concentration for a half-maximal effect (EC50) (class symbol) was under 100 nM.
